Data reported in the NIST ThermoML archive (doi:10.1021/je060271a).
Where “and” joins values, the source holds several entries; their conditions need not be identical. Equal entries are not always repeated.

Conditions: 343.16 K, Liquid, Vibrating tube method

CCCCCC(=O)OCC(COC(=O)CCCCC)(COC(=O)CCCCC)COC(=O)CCCCC [pentaerythritol tetrahexanoate]
Conditions	mass density
12946 kPa	966.8 kg/m3
12969 kPa	966.9 kg/m3
13446 kPa	967.2 kg/m3
13485 kPa	967.3 kg/m3
13510 kPa	967.1 kg/m3
13521 kPa	967.2 kg/m3
13524 kPa	967.2 kg/m3
13527 kPa	967.3 kg/m3
13530 kPa	967.2 kg/m3
13534 kPa	967.1 kg/m3
13539 kPa	967.2 kg/m3
13542 kPa	967.2 kg/m3
13545 kPa	967.2 kg/m3
13548 kPa	967.2 kg/m3
13550 kPa	967.1 kg/m3
13554 kPa	967.3 kg/m3
13556 kPa	967.3 kg/m3
13562 kPa	967.2 kg/m3
13571 kPa	967.4 kg/m3
13578 kPa	967.2 kg/m3
13593 kPa	967.3 kg/m3
13604 kPa	967.2 kg/m3 and 967.4 kg/m3
13605 kPa	967.3 kg/m3 and 967.2 kg/m3
13606 kPa	967.2 kg/m3 and 967.3 kg/m3
13607 kPa	967.2 kg/m3
13608 kPa	967.2 kg/m3 and 967.3 kg/m3 and 967 kg/m3
13609 kPa	967.3 kg/m3
13610 kPa	967.3 kg/m3
13612 kPa	967.2 kg/m3
13620 kPa	967.2 kg/m3
13632 kPa	967.3 kg/m3
13650 kPa	967.3 kg/m3
13671 kPa	967.3 kg/m3
13695 kPa	967.3 kg/m3
13719 kPa	967.4 kg/m3
13749 kPa	967.3 kg/m3
13774 kPa	967.4 kg/m3
13798 kPa	967.5 kg/m3
13828 kPa	967.5 kg/m3
13853 kPa	967.4 kg/m3
13878 kPa	967.4 kg/m3
13960 kPa	967.5 kg/m3
14011 kPa	967.6 kg/m3
14041 kPa	967.5 kg/m3
14066 kPa	967.5 kg/m3
14096 kPa	967.6 kg/m3
14122 kPa	967.7 kg/m3
14146 kPa	967.7 kg/m3
14176 kPa	967.7 kg/m3
14201 kPa	967.5 kg/m3
14227 kPa	967.6 kg/m3
14310 kPa	967.7 kg/m3
14444 kPa	967.9 kg/m3
14501 kPa	967.9 kg/m3
14527 kPa	967.9 kg/m3
14558 kPa	967.9 kg/m3
14584 kPa	967.8 kg/m3
14611 kPa	967.9 kg/m3
14643 kPa	967.9 kg/m3
14670 kPa	968 kg/m3
14696 kPa	968 kg/m3
14723 kPa	967.9 kg/m3
14870 kPa	968.1 kg/m3
14897 kPa	968.1 kg/m3
14930 kPa	968.2 kg/m3
14958 kPa	968.2 kg/m3
14985 kPa	968.3 kg/m3
15019 kPa	968.2 kg/m3
15047 kPa	968.3 kg/m3
15080 kPa	968.3 kg/m3
15108 kPa	968.2 kg/m3
15136 kPa	968.3 kg/m3
15164 kPa	968.3 kg/m3
15198 kPa	968.4 kg/m3
15226 kPa	968.5 kg/m3
15255 kPa	968.4 kg/m3
15642 kPa	968.6 kg/m3
15668 kPa	968.6 kg/m3
15694 kPa	968.7 kg/m3
15725 kPa	968.7 kg/m3
15751 kPa	968.8 kg/m3
15777 kPa	968.7 kg/m3
15808 kPa	968.8 kg/m3
15834 kPa	968.8 kg/m3
15864 kPa	968.9 kg/m3
15891 kPa	968.9 kg/m3
15916 kPa	968.8 kg/m3
15943 kPa	969 kg/m3
15974 kPa	968.8 kg/m3
16000 kPa	969 kg/m3
16057 kPa	969 kg/m3
16359 kPa	969 kg/m3
16386 kPa	969.2 kg/m3
16412 kPa	969.2 kg/m3
16439 kPa	969.4 kg/m3
16472 kPa	969.2 kg/m3
16494 kPa	969.2 kg/m3
16872 kPa	969.5 kg/m3
16899 kPa	969.5 kg/m3
16931 kPa	969.5 kg/m3
16957 kPa	969.5 kg/m3
16982 kPa	969.7 kg/m3
17013 kPa	969.6 kg/m3
17038 kPa	969.6 kg/m3
17064 kPa	969.6 kg/m3
17094 kPa	969.8 kg/m3
17120 kPa	969.7 kg/m3
17146 kPa	969.7 kg/m3
17177 kPa	969.8 kg/m3
17203 kPa	969.7 kg/m3
17229 kPa	969.8 kg/m3
17260 kPa	969.7 kg/m3
17286 kPa	969.9 kg/m3
17312 kPa	969.7 kg/m3
17344 kPa	969.7 kg/m3
17371 kPa	969.9 kg/m3
17398 kPa	969.9 kg/m3
17430 kPa	969.9 kg/m3
19111 kPa	971.1 kg/m3
19142 kPa	970.9 kg/m3
19168 kPa	971.1 kg/m3
19194 kPa	971.2 kg/m3
19226 kPa	971.2 kg/m3
19252 kPa	971.1 kg/m3
19282 kPa	971.1 kg/m3
19307 kPa	971.2 kg/m3
19331 kPa	971.4 kg/m3
19353 kPa	971.2 kg/m3
19375 kPa	971.2 kg/m3
19400 kPa	971.3 kg/m3
19422 kPa	971.2 kg/m3
19443 kPa	971.3 kg/m3
19469 kPa	971.4 kg/m3
19491 kPa	971.3 kg/m3
19512 kPa	971.3 kg/m3
19539 kPa	971.3 kg/m3
19561 kPa	971.4 kg/m3
19583 kPa	971.4 kg/m3
19609 kPa	971.4 kg/m3
19868 kPa	971.6 kg/m3
19886 kPa	971.6 kg/m3
19908 kPa	971.6 kg/m3
19925 kPa	971.7 kg/m3
19941 kPa	971.7 kg/m3
19959 kPa	971.7 kg/m3
19975 kPa	971.6 kg/m3
19990 kPa	971.8 kg/m3
20010 kPa	971.8 kg/m3
20026 kPa	971.6 kg/m3
20042 kPa	971.7 kg/m3
20054 kPa	971.7 kg/m3
20065 kPa	971.8 kg/m3
20075 kPa	971.6 kg/m3
20086 kPa	971.7 kg/m3
20099 kPa	971.8 kg/m3
20105 kPa	971.8 kg/m3
20106 kPa	971.8 kg/m3
20108 kPa	971.7 kg/m3
20111 kPa	971.8 kg/m3
20114 kPa	971.8 kg/m3
20116 kPa	971.8 kg/m3
20117 kPa	971.8 kg/m3
20118 kPa	971.7 kg/m3
20119 kPa	971.7 kg/m3
20121 kPa	971.6 kg/m3
20122 kPa	971.7 kg/m3
20124 kPa	971.6 kg/m3 and 971.8 kg/m3
20140 kPa	971.8 kg/m3
20174 kPa	971.9 kg/m3
20204 kPa	971.8 kg/m3
20239 kPa	971.8 kg/m3
20269 kPa	971.9 kg/m3
20298 kPa	971.8 kg/m3
20328 kPa	971.8 kg/m3
20365 kPa	971.9 kg/m3
20395 kPa	971.8 kg/m3
20426 kPa	972 kg/m3
20462 kPa	971.8 kg/m3
20493 kPa	972 kg/m3
20525 kPa	972 kg/m3
20558 kPa	971.9 kg/m3
20589 kPa	972 kg/m3
20626 kPa	972.1 kg/m3
20657 kPa	972.3 kg/m3
20689 kPa	972.1 kg/m3
20727 kPa	972.1 kg/m3
20759 kPa	972.2 kg/m3
20790 kPa	972.2 kg/m3
20828 kPa	972.3 kg/m3
20860 kPa	972.2 kg/m3
20892 kPa	972.2 kg/m3
20930 kPa	972.4 kg/m3
20963 kPa	972.3 kg/m3
20998 kPa	972.3 kg/m3
21030 kPa	972.4 kg/m3
21068 kPa	972.5 kg/m3
21101 kPa	972.4 kg/m3
21134 kPa	972.4 kg/m3
21166 kPa	972.5 kg/m3
21238 kPa	972.5 kg/m3
21271 kPa	972.5 kg/m3
21309 kPa	972.6 kg/m3
21339 kPa	972.6 kg/m3
21372 kPa	972.6 kg/m3
21399 kPa	972.7 kg/m3
21426 kPa	972.6 kg/m3
21732 kPa	972.7 kg/m3
21757 kPa	972.8 kg/m3
21782 kPa	972.8 kg/m3
21811 kPa	972.9 kg/m3
22020 kPa	972.9 kg/m3
22050 kPa	973.1 kg/m3
22076 kPa	973.1 kg/m3
22102 kPa	973 kg/m3
22132 kPa	973.1 kg/m3
22157 kPa	973 kg/m3
22183 kPa	973.2 kg/m3
22214 kPa	973.1 kg/m3
22240 kPa	973.1 kg/m3
22266 kPa	973.1 kg/m3
22296 kPa	973.1 kg/m3
22322 kPa	973.2 kg/m3
22348 kPa	973.2 kg/m3
22379 kPa	973.3 kg/m3
22405 kPa	973.1 kg/m3
22432 kPa	973.3 kg/m3
22458 kPa	973.2 kg/m3
22489 kPa	973.3 kg/m3
22515 kPa	973.3 kg/m3
22547 kPa	973.4 kg/m3
22573 kPa	973.4 kg/m3
23002 kPa	973.6 kg/m3
23035 kPa	973.7 kg/m3
23063 kPa	973.7 kg/m3
23092 kPa	973.8 kg/m3
23125 kPa	973.8 kg/m3
23154 kPa	973.8 kg/m3
23183 kPa	973.8 kg/m3
23212 kPa	973.9 kg/m3
23246 kPa	973.9 kg/m3
23274 kPa	973.9 kg/m3
23301 kPa	974 kg/m3
23332 kPa	973.8 kg/m3
23381 kPa	974 kg/m3
23410 kPa	974 kg/m3
23435 kPa	974 kg/m3
23459 kPa	974 kg/m3
23484 kPa	974.1 kg/m3
23514 kPa	973.9 kg/m3
23540 kPa	974.1 kg/m3
23566 kPa	974 kg/m3
23591 kPa	974.2 kg/m3
23616 kPa	974 kg/m3
23646 kPa	974.1 kg/m3
23671 kPa	974.1 kg/m3
23696 kPa	974.1 kg/m3
23727 kPa	974.1 kg/m3
23752 kPa	974 kg/m3
23782 kPa	974.2 kg/m3
23914 kPa	974.3 kg/m3
23941 kPa	974.3 kg/m3
23971 kPa	974.5 kg/m3
23997 kPa	974.2 kg/m3
24028 kPa	974.3 kg/m3
24054 kPa	974.2 kg/m3
24080 kPa	974.3 kg/m3
24106 kPa	974.3 kg/m3
24137 kPa	974.4 kg/m3
24163 kPa	974.4 kg/m3
24190 kPa	974.4 kg/m3
24221 kPa	974.4 kg/m3
24248 kPa	974.4 kg/m3
24279 kPa	974.4 kg/m3
24306 kPa	974.4 kg/m3
26698 kPa	976.1 kg/m3
26725 kPa	976 kg/m3
26758 kPa	976.2 kg/m3
26785 kPa	976.3 kg/m3
26812 kPa	976.3 kg/m3
26845 kPa	976.2 kg/m3
27601 kPa	976.6 kg/m3
27630 kPa	976.8 kg/m3
27660 kPa	976.8 kg/m3
27697 kPa	976.8 kg/m3
27728 kPa	976.7 kg/m3
27758 kPa	976.8 kg/m3
27787 kPa	976.8 kg/m3
27824 kPa	976.7 kg/m3
27854 kPa	976.9 kg/m3
